Laboratory results reported in patent publication US10287255B2, “Compounds as histone deacetylase 6 inhibitors and pharmaceutical compositions comprising the same” (CHONG KUN DANG PHARMACEUTICAL CORP., priority 2014, dated 2019).
pIC50: −log10 of the molar value.

Assays:
[1] = target: T1, human recombinant HDAC6 (Homo sapiens, UniProt Q9UBN7); experiment: HDAC6 enzyme activity inhibition assay (in vitro, fluorimetric); assay type: biochemical; details: for HDAC6 selectivity (fold): HDAC6 selectivity over HDAC1; for pIC50: human recombinant HDAC6, fluorimetric kit, same protocol as HDAC1
T1 construct: purchased Calbiochem 382180
T1 sequence (Q9UBN7 1-1215): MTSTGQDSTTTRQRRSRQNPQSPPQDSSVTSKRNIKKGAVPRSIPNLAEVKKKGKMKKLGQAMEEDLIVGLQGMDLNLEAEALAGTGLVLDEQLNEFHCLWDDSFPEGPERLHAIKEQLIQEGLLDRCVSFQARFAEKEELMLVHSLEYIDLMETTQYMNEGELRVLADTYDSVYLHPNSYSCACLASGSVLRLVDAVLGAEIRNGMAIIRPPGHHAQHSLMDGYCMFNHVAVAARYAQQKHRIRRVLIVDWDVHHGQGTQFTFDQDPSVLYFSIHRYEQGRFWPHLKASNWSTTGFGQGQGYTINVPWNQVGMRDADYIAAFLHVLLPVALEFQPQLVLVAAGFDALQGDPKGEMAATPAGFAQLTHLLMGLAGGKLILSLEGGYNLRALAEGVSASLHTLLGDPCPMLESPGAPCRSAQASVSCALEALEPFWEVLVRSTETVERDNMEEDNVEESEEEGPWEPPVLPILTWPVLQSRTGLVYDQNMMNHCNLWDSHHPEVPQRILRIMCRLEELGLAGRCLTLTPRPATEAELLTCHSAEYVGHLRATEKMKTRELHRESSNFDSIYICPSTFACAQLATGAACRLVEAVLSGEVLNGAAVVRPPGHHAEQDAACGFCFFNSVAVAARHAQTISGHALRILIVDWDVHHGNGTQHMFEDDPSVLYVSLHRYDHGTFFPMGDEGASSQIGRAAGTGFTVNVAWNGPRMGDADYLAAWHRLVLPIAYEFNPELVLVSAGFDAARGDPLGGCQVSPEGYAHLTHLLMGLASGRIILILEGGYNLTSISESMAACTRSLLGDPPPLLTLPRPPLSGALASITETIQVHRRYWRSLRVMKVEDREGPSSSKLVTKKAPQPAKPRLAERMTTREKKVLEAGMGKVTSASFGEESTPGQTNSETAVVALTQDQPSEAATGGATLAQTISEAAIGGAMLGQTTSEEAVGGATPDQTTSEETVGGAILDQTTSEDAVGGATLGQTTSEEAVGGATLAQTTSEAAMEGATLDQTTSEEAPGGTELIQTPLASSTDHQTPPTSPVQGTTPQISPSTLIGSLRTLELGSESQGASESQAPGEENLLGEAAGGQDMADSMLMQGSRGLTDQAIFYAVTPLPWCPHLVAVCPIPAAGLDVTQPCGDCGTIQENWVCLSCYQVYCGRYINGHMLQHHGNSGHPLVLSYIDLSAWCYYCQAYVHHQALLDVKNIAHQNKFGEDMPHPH
Experimental: (§1) In order to examine the HDAC6 selectivity of the compounds of formula 1 of the present invention by HDAC1 and HDAC6 enzymatic activity inhibition assays, an experiment was performed using a conventional substance as a control.
(§2) HDAC enzyme activity was measured using a HDAC Fluorimetric Drug Discovery Kit (BML-AK511, 516, Enzo Life Science). For the HDAC1 enzyme activity test, human recombinant HDAC1 (BML-SE456) was used as an enzyme source, and Fluor de Lys®-“SIRT1 (BNL-KI177) was used as a substrate. A 5-fold dilution of the compound was seeded into a 96-well plate, and then 0.3 μg of the enzyme and 10 μM of the substrate were added to each well of the plate and allowed to react at 30° C. for 60 minutes. Then, Fluor de Lys® Developer II (BML-KI176) was added thereto and allowed to react for 30 minutes, after which the fluorescence value (Ex 360, Em 460) was measured using a multi-plate reader (Flexstation 3, Molecular Device). The HDAC6 enzyme was tested using human recombinant HDAC6 (382180) (Calbiochem) according to the same protocol as the HDAC1 enzyme activity test method. Based on the resulting values, each IC50 value was calculated using GraphPad Prism4.0 program.

[2] = target: T2, human recombinant HDAC1 (Homo sapiens, UniProt Q13547); experiment: HDAC1 enzyme activity inhibition assay (in vitro, fluorimetric); assay type: biochemical; details: human recombinant HDAC1, fluorimetric kit, 30° C. 60 minutes
T2 construct: purchased Enzo Life Science BML-SE456
Experimental: as §1, §2

T2 sequence (Q13547 whole entry): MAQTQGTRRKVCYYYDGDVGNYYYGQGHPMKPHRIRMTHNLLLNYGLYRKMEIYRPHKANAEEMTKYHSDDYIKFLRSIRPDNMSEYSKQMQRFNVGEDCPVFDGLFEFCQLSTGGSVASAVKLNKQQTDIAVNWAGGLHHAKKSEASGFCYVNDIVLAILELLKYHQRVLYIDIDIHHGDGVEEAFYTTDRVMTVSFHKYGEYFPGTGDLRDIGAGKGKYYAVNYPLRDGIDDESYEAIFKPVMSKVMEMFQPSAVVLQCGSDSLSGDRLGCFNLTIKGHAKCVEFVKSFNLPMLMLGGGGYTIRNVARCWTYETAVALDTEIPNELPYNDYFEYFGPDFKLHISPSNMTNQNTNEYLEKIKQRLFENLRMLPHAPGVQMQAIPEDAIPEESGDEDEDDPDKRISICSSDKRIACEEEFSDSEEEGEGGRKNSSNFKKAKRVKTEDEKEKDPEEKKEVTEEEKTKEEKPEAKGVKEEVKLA

| HDAC6 selectivity (fold) [1] | pIC50 [1] | pIC50 [2] | Structure (SMILES) |
| --- | --- | --- | --- |
| 37 fold | 6.75 | 5.18 | C[C@@H]1CN(C(=O)c2ccccc2)C[C@H](C)N1Cc1ccc(C(=O)NO)cc1 [Compound 080, 4-(((2S,6R)-4-benzoyl-2,6-dimethylpiperazin-1-yl)methyl)-N-hydroxybenzamide] |
| 78 fold | 6.84 | 4.95 | C[C@@H]1CN(Cc2ccccc2)C[C@H](C)N1Cc1ccc(C(=O)NO)cc1 [Compound 081, 4-(((2S,6R)-4-benzyl-2,6-dimethylpiperazin-1-yl)methyl)-N-hydroxybenzamide] |
| 201 fold | 8.00 | 5.70 | C[C@@H]1CN(Cc2ccc(C(=O)NO)cc2)C[C@H](C)N1C(=O)c1ccccc1 [Compound 083, 4-(((3R,5S)-4-benzoyl-3,5-dimethylpiperazin-1-yl)methyl)-N-hydroxybenzamide] |
| – | 7.64 | 4.92 | C[C@@H]1CN(Cc2ccc(C(=O)NO)cc2)C[C@H](C)N1Cc1ccccc1 [Compound 084, 4-(((3R,5S)-4-benzyl-3,5-dimethylpiperazin-1-yl)methyl)-N-hydroxybenzamide] |
| >105 fold | 7.02 | < 5.00 | C[C@@H]1CN(Cc2ccc(C(=O)NO)cc2)C[C@H](C)N1S(=O)(=O)c1ccccc1 [Compound 100, 4-(((3R,5S)-3,5-dimethyl-4-(phenylsulfonyl)piperazin-1-yl)methyl)-N-hydroxybenzamide] |
| 27 fold | 7.22 | 5.80 | C[C@@H]1CN(S(=O)(=O)c2ccccc2)C[C@H](C)N1Cc1ccc(C(=O)NO)cc1 [Compound 105, 4-(((2S,6R)-2,6-dimethyl-4-(phenylsulfonyl)piperazin-1-yl)methyl)-N-hydroxybenzamide] |
| 79 fold | 6.78 | 4.88 | C[C@@H]1CN(C(=O)c2ccccc2Cl)C[C@H](C)N1Cc1ccc(C(=O)NO)cc1 [Compound 108, 4-(((2S,6R)-4-(2-chlorobenzoyl)-2,6-dimethylpiperazin-1-yl)methyl)-N-hydroxybenzamide] |
| 59 fold | 7.07 | 5.30 | C[C@@H]1CN(S(=O)(=O)c2ccccc2Cl)C[C@H](C)N1Cc1ccc(C(=O)NO)cc1 [Compound 110, 4-(((2S,6R)-4-((2-chlorophenyl)sulfonyl)-2,6-dimethylpiperazin-1-yl)methyl)-N-hydroxybenzamide] |
| >256 fold | 7.41 | – | C[C@@H]1CN(Cc2ccc(C(=O)NO)c(F)c2)C[C@H](C)N1Cc1ccccc1 [Compound 171, 4-(((3R,5S)-4-benzyl-3,5-dimethylpiperazin-1-yl)methyl)-2-fluoro-N-hydroxybenzamide] |
| >23 fold | 6.37 | – | C[C@@H]1CN(Cc2ccccc2)C[C@H](C)N1Cc1ccc(CC(=O)NO)cc1 [Compound 176, 2-(4-(((2S,6R)-4-benzyl-2,6-dimethylpiperazin-1-yl)methyl)phenyl)-N-hydroxyacetamide] |
| >40 fold | 6.60 | – | C[C@@H]1CN(Cc2ccc(C(=O)NO)cc2)C[C@H](C)N1CCc1ccccc1 [Compound 184, 4-(((3R,5S)-3,5-dimethyl-4-phenethylpiperazin-1-yl)methyl)-N-hydroxybenzamide] |
| 48 fold | 6.68 | – | C[C@@H]1CN(Cc2ccc3oc(C(=O)NO)cc3c2)C[C@H](C)N1Cc1ccccc1 [Compound 571, 5-(((3R,5S)-4-benzyl-3,5-dimethylpiperazin-1-yl)methyl)-N-hydroxybenzofuran-2-carboxamide] |

Continued, compound first:

| Structure (SMILES) | HDAC6 selectivity (fold) [1] | pIC50 [1] | pIC50 [2] |
| --- | --- | --- | --- |
| CC(=O)N1[C@H](C)CN(Cc2ccc(C(=O)NO)cc2)C[C@@H]1C [Compound 082, 4-(((3R,5S)-4-acetyl-3,5-dimethylpiperazin-1-yl)methyl)-N-hydroxybenzamide] | 369 fold | 7.47 | 4.90 |
| CC(C)NC(=O)N1[C@H](C)CN(Cc2ccc(C(=O)NO)cc2)C[C@@H]1C [Compound 098, (2S,6R)-4-(4-(hydroxycarbamoyl)benzyl)-N-isopropyl-2,6-dimethylpiperazine-1-carboxamide] | >133 fold | 7.12 | < 5.00 |
| C[C@@H]1CN(Cc2ccc(C(=O)NO)cc2)C[C@H](C)N1C(=O)Nc1cccc(Cl)c1 [Compound 099, (2S,6R)-N-(3-chlorophenyl)-4-(4-(hydroxycarbamoyl)benzyl)-2,6-dimethylpiperazine-1-carboxamide] | 51 fold | 6.62 | 4.91 |
| CC(C)NC(=O)N1C[C@@H](C)N(Cc2ccc(C(=O)NO)cc2)[C@@H](C)C1 [Compound 103, (3R,5S)-4-(4-(hydroxycarbamoyl)benzyl)-N-isopropyl-3,5-dimethylpiperazine-1-carboxamide] | 15 fold | 6.76 | 5.59 |
| C[C@@H]1CN(C(=O)Nc2cccc(Cl)c2)C[C@H](C)N1Cc1ccc(C(=O)NO)cc1 [Compound 104, (3R,5S)-N-(3-chlorophenyl)-4-(4-(hydroxycarbamoyl)benzyl)-3,5-dimethylpiperazine-1-carboxamide] | 9 fold | 7.09 | 6.15 |
| C[C@@H]1CN(C(=O)c2ccc(Cl)cc2)C[C@H](C)N1Cc1ccc(C(=O)NO)cc1 [Compound 106, 4-(((2S,6R)-4-(4-chlorobenzoyl)-2,6-dimethylpiperazin-1-yl)methyl)-N-hydroxybenzamide] | 61 fold | 6.92 | 5.14 |
| C[C@@H]1CN(C(=O)c2cccc(Cl)c2)C[C@H](C)N1Cc1ccc(C(=O)NO)cc1 [Compound 107, 4-(((2S,6R)-4-(3-chlorobenzoyl)-2,6-dimethylpiperazin-1-yl)methyl)-N-hydroxybenzamide] | 81 fold | 6.99 | 5.08 |
| C[C@@H]1CN(S(=O)(=O)c2ccc(Cl)cc2)C[C@H](C)N1Cc1ccc(C(=O)NO)cc1 [Compound 109, 4-(((2S,6R)-4-((4-chlorophenyl)sulfonyl)-2,6-dimethylpiperazin-1-yl)methyl)-N-hydroxybenzamide] | 67 fold | 7.12 | 5.29 |
| C[C@@H]1CN(C(=O)c2ccccn2)C[C@H](C)N1Cc1ccc(C(=O)NO)cc1 [Compound 111, 4-(((2S,6R)-2,6-dimethyl-4-picolinoylpiperazin-1-yl)methyl)-N-hydroxybenzamide] | >22 fold | 6.34 | < 5.00 |
| C[C@@H]1CN(Cc2ccc(C(=O)NO)cc2)C[C@H](C)N1Cc1ccccc1C1=CCC(C)(C)CC1 [Compound 331, 4-(((3R,5S)-4-((4′,4′-dimethyl-2′,3′,4′,5′-tetrahydro-[1,1′-biphenyl]-2-yl)methyl)-3,5-dimethylpiperazin-1-yl)methyl)-N-hydroxybenzamide] | 13 fold | 6.14 | – |
| CC(C)CCN1CCN(Cc2cccc(CN3[C@H](C)CN(Cc4ccc(C(=O)NO)cc4)C[C@@H]3C)c2)CC1 [Compound 454, N-hydroxy-4-(((3R,5S)-4-(3-((4-isopentylpiperazin-1-yl)methyl)benzyl)-3,5-dimethylpiperazin-1-yl)methyl)benzamide] | – | 7.36 | – |
